Laboratory results as given in BindingDB's records for doi:10.1021/jm3012917 (Philipps University Marburg, 2013).

Target: Coagulation factor VII (Homo sapiens) (UniProt P08709)
Assay: Inhibition of human FVIIa

Chain of Coagulation factor VII (Homo sapiens) (P08709 whole entry, looked up): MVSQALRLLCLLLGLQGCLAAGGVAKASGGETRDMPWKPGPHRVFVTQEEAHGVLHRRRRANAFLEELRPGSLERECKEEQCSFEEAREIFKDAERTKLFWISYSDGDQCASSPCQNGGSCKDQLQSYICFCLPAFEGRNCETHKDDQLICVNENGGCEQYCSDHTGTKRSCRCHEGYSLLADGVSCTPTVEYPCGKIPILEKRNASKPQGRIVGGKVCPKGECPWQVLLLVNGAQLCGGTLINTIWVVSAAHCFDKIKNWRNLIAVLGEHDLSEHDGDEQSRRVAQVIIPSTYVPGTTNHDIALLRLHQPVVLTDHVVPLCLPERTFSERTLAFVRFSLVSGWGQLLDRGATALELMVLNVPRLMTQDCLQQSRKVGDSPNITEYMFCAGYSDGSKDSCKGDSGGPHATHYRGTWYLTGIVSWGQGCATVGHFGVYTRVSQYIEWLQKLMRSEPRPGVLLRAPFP

Row | Compound | Ki [µM]
1 | N=C(N)c1ccc(CNC(=O)[C@@H]2Cc3ccc(cc3)NC(=O)CCN3CCN(CCC(=O)Nc4ccc(cc4)C[C@@H](NS(=O)(=O)Cc4ccccc4)C(=O)N2)CC3)cc1 | > 50
2 | N=C(N)c1ccc(CNC(=O)[C@@H]2Cc3ccc(cc3)NC(=O)CN3CCN(CC3)CC(=O)Nc3ccc(cc3)C[C@@H](NS(=O)(=O)Cc3ccccc3)C(=O)N2)cc1 | > 30
